According to patent publication US9844535B2, “SHP2 inhibitors and methods of treating autoimmune and/or glomerulonephritis-associated diseases using SHP2 inhibitors” (Indiana University Research and Technology Corporation, priority 2013, dated 2017):

Columns and labels:
[1] = system: ERK and AKT signaling; test: Immunoblot of ERK/AKT signaling in tissue lysates of inhibitor-treated MRL/lpr mice; assay type: in vivo, mouse; settings: 7.5 mg/kg daily for 4 weeks
Procedure: Briefly, female MRL/MpJ-fas lpr (MRL/lpr), MRL/Mpj and C57BL/6J mice were purchased from the Jackson Laboratory (Bar Harbor, Me.). For experiments, mice within each group were ip injected with either vehicle (DMSO) or the SHP2 inhibitor (7.5 mg/kg/per day). […] Body weight was measured daily and treatment dosage was adjusted accordingly. At the end of the treatment period, mice were sacrificed with CO2 exsanguination and SLE targeted organs were removed. For each mouse, spleen, kidney, and heart weight were calculated. In addition, total animal body weight and tibia length were measured. Peripheral blood/serum was also collected for use in the cytokine assays described below.
Tissues (spleen, kidney, heart) isolated from either vehicle (DMSO) treated or SHP2 inhibitor treated WT C57/B16, MRL/MpJ, or MRL/lpr female mice were dissected, perfused in PBS, and immediately frozen in liquid N2. Whole-cell lysates were prepared by homogenizing the tissue in radioimmunoprecipitation (RIPA) buffer (25 mmol/l Tris-HCl [pH 7.4], 150 mmol/l NaCl, 0.1% SDS, 1% NP-40, 0.5% sodium deoxycholate, 5 mmol/l EDTA, 1 mmol/l NaF, 1 mmol/l sodium orthovanadate, and a protease cocktail) at 4° C., followed by clarification at 14,000 g. […] Bands were visualized with enhanced chemiluminescence and quantified by densitometry (developed by Wayne Rasband; ImageJ 1.41 software, http://rsbweb.nih.gov/ij/). […]

[2] = system: human T cells isolated from SLE patients; test: Cultured human SLE T cells: IFNγ secretion, proliferation, viability; assay type: cell-based
Description: All SLE human cells in the following Examples were isolated from SLE patients diagnosed according to the American College of Rheumatology classification criteria and recruited from the Division of Rheumatology at Beth Israel Deaconess Medical Center, Boston, Mass. under IRB protocol 2006-P-0298. Healthy gender- and age-matched control cells were also used for the Examples herein. Briefly, peripheral venous blood was collected in heparin-lithium tubes and peripheral blood mononuclear cells were prepared with ficoll-Paque centrifugation, as previously described in Grammatikos et al., Clin Immunol. 2014; 150: 192-200.
Human T cells were purified from frozen peripheral blood mononuclear cells (PBMC) isolated from SLE or normal donor patients. Briefly, frozen PBMCs were thawed in a 37° C. water bath for 1 to 2 minutes, and then gently added to pre-warmed RPMI1640 medium with 10% FBS (total 10 ml). The cells were centrifuged at 2000 rpm for 5 minutes at room temperature. The cell pellet was washed with 5 ml of pre-warmed RPMI 1640 medium with 10% FBS three times, followed by a final D-PBS (no calcium, no magnesium buffer) wash. Human T cells were then purified by a Pan T Cell Isolation Kit (human) from Miltenyi Biotec, as described above.
The purity of isolated T cells routinely exceeded 94%. After purification, T cells were resuspended in RPMI1640 medium with 10% FBS and 1×10^5 cells/well in 100 ul total volume was loaded onto a 96-well plate, either left uncoated or precoated with anti-CD3 antibody (1 ug/ml) (OKT3; Biolegend). […]
For cell viability, an MTT (thiazolyl Blue tetrazolium Bromide, M2128, Sigma, St. Louis, Mo.) assay was employed. […] Spectrophotometric absorbance of the samples was assessed using a microplate reader at a wavelength of 595 nm. T cell numbers/proliferation was assessed by cell count using a hemocytometer. […] After mixing, 10 μl of the mixture was loaded onto the hemocytometer and the total average number of cells/well was calculated. […]

## Cn1c(-c2cccc(NC(=O)C(=O)Nc3ccc(-c4ccsc4)cc3)c2)c(I)c2cc(C(=O)O)c(O)cc21 [11a-1]
[1]
  downstream ERK and AKT signaling in tissue lysates: reversed aberrant downstream ERK and AKT signaling
[2]; human SLE T cell cultures
  T cell viability: no differences in viability
[2]; human SLE T cells, 48 hours, 10 μg/ml
  T cell proliferation in response to CD3: reduced T cell proliferation
[2]; human SLE T cells, CD3 antibody, 48 hours, 10 μg/ml
  secretion of IFNγ in response to T cell activation: significantly decreased the secretion of IFNγ activity
